Results: patent US11440935B2, “3″,5″-dimethoxybenzoyl-3′-amino-3′-deoxy adenosine-5′-triphosphates and pharmaceutical uses thereof” (Danmir Therapeutics, LLC, priority 2018, dated 2022)
Where “and” joins values, the source holds several entries; their conditions need not be identical. Equal entries are not always repeated.

What was measured:
conscious guinea-pigs [1] = assay: Aerosolized ATP-induced bronchoconstriction in conscious guinea-pigs (sRaw); type: in vivo, guinea-pig; details: n=6
Description: (§1) This study was performed in 6 guinea-pigs. The housing room was constantly ventilated, and the temperature kept at ˜23° C. After quarantine, the animals were individually placed in a whole-body, unrestrained, plethysmograph chamber (model PLY3215, Buxco Electronics Inc., Troy, N.Y.) for ˜40 min once a day for two continuous days before the cough test. All GPs were weighed before the cough study.
(§2) ATP was purchased from Sigma-Aldrich (Cat #A2383-10G). Solutions of ATP used for aerosol challenge were freshly made just prior to use by dissolving the powder in 0.9% saline (NaCl) solution. Solutions of DT-0111 used for aerosol administration were freshly made by dissolving the powder in 0.9% saline (NaCl) solution.
A plethysmograph chamber was continuously flushed with normoxic (21% O2 and 79% N2) room air at 2 L/min. The same amount of air was drawn through the chamber base outlets using a Buxco bias flow regulator to keep the chamber bias flow balanced. ATP or DT solution was aerosolized by using a vibrating mesh nebulizer (Ireland Ltd., Galway Ireland, AG-AL1100). The output rate of delivered aerosol was around 0.5 ml/min with droplet size (volume median diameter) at 2.5-4.0 μm (manufacture's indications). […]
The results are expressed as percent change in airway pressure (sRaw). n=6; * p<0.05, vs. ATP 0.0 mg/ml; †p<0.05, DT-0111 vs. Ctrl at the same ATP dose.

[2] = system: nodose ganglion vagal sensory nerve terminals; assay: ATP-induced neural action potentials in guinea-pig lung-vagus preparation ex vivo; details: ATP 10 μM; DT-0111 1 mM; innervated guinea-pig lung ex vivo
Description: The innervated guinea-pig lung preparation was prepared as was described in Undem B J, Chuaychoo B, Lee M G, Weinreich D, Myers A C, Kollarik M. Subtypes of vagal afferent C-fibres in guinea-pig lungs. J Physiol 2004; 556: 905-917; Weigand L A, Ford A P, Undem B J. A role for ATP in bronchoconstriction-induced activation of guinea pig vagal intrapulmonary C-fibres. J Physiol 2012; 590: 4109-4120. The contents of Undem et al. and Weigand et al. are incorporated herein for the purpose of the preparation of the innervated guinea-pig lung preparation. The response to ATP (10 μM; 1 ml, slowly infused into trachea and pulmonary artery) was assessed as the number of action potentials it elicited. Two control responses 15 minutes apart were recorded. There was not differences in the number of action potentials evoked between the first and second response (p>0.1). Subsequently, the lung superfused and perfused via both trachea and pulmonary artery for 15 min with increasing concentration of DT-0111 and the ATP challenge was repeated. The data were quantified as the total number of action potentials evoked and the peak frequency (Hz) as measured by the most action potentials evoked in any 1 s bin. DT-0111 was prepared in distilled water as a 10 mM solution, and aliquots were stored frozen at −20° C. (1-5 days). […]

conscious guinea-pigs [3] = assay: Aerosolized ATP-induced cough in conscious free moving guinea-pigs; type: in vivo, guinea-pig
Description: as §1, §2
A plethysmograph chamber was continuously flushed with normoxic (21% O2 and 79% N2) room air at 2 L/min. The same amount of air was drawn through the chamber base outlets using a Buxco bias flow regulator to keep the chamber bias flow balanced. ATP or DT solution was aerosolized by using a vibrating mesh nebulizer (Ireland Ltd., Galway Ireland, AG-AL1100). The output rate of delivered aerosol was around 0.5 ml/min with droplet size (volume median diameter) at 2.5-4.0 μm (manufacture's indications). The aerosol was mixed with airflow and directly delivered into the plethysmograph chamber. The latter was placed in a standard chemical fume hood (size: 3×6 ft) installed in a standard laboratory.
A guinea-pig was placed in the chamber again after adaptation. Following stabilization, #1 guinea-pig was exposed to aerosolized ATP at 6 mg/ml, 24 mg/ml, and then 48 mg/ml for 5 min with an interval of 30 min. The remaining animals (#2-#6 guinea-pigs) were exposed to aerosolized ATP at 48 mg/ml for 5 min. Approximately 140 min later, the same dose of ATP was repeated immediately after DT-0111 aerosol inhalation (12 mg/ml for 5 min). […] The cough sound and behavioral activities were continuously monitored and recorded before (for 3 min), during 5 min aerosol delivery, and 20 min after cessation of the delivery.
Setup of the cough recording system. The top of the plethysmograph chamber was connected with a plastic tube that was attached by the nebulizer. Normoxic air driven by the nebulizer controller was flowed into the chamber and sucked out by the bias flow regulator with the in and out flow volume balanced (2.0 L/min). To detect cough, a microphone system was mounted in the roof of the chamber to record sound; a video camera was placed outside of the chamber to monitor animal body posture; and a Buxco pneumotachograph (differential pressure transducer) attached to the chamber to record airflow. All signals generated by video camera, microphone, and pressure transducer were amplified and recorded continuously by PowerLab/8 sp (model ML 785; ADInstruments Inc., Colorado Springs, Colo.) and a computer with the LabChart Pro 7 software.
Cough count. A typical cough response, as reported before (Girard et al., Eur Respir J, 1995; Blasko et al., American Journal of Advanced Drug Delivery. 5:131-138, 2017; Corboz et al., Journal of Pharmacology and Experimental Therapeutics. 363: 348-357, 2017), was defined by the simultaneous appearance of: 1) a transient and great change in the airflow (a rapid inspiration followed by rapid expiration); 2) a typical cough sound with the peak power density at 1-2 kHz in frequency spectrum (sneeze at 3.5-6.5 kHz); and 3) animal body (head) posture and movement.

[4] = DT (12 mg/ml, 5 min) + ATP (48 mg/ml), per guinea-pig
[5] = aerosolized DT-0111 12 mg/ml, n=5

Substance: Sodium 3′-N-(3,5-dimethoxybenzoyl)-3′-deoxy-β-D-adenosine 5′-triphosphate [DT-0111]
- effect on aerosolized ATP-induced bronchoconstriction (conscious guinea-pigs [1]): Suppresses
- effect on ATP-induced action potentials [2]: markedly suppresses the effect of ATP
- Bout Cough T1# (conscious guinea-pigs [3]; [4]): 0
- Bout Cough T2# (conscious guinea-pigs [3]; [4]): 0
- Individual Cough (conscious guinea-pigs [3]; DT (12 mg/ml, 5 min) + ATP (48 mg/ml), per guinea-pig, listed as DT): 0 (2×) and 1 (2×) and 7
- effect on ATP-induced bout of coughs (conscious guinea-pigs [3]; [5]): blocked the bout of coughs in all tested animals
- effect on ATP-induced individual coughs (conscious guinea-pigs [3]; [5]): little effect on individual coughs
- cough evoked by the compound per se (conscious guinea-pigs [3]; aerosolized DT-0111 alone): did not evoke any cough
